Reference: patent US20230414582A1, “METHODS OF TREATING DISEASES AND DISORDERS” (Curis, Inc., priority 2020, published 2023)
Entries after “also recorded” stand apart in the source; their conditions may differ.

Experiments:
[1] = test system: resistant or refractory, advanced NHL; test: Phase I dose escalation trial of Compound 1 in NHL (NCT03328078): tumor response; assay type: in vivo, human; conditions: patient with DLBCL-GCB; initial dose 200 mg bid, final dose 300 mg bid
Experimental: (§5) Seven dosing cohorts included 50 and 100 mg QD, and 50, 100, 200, 300, or 400 mg BID of daily continuous oral monotherapy in 21-Day cycles. Objective included safety and tolerance (primary), pk/pd and early efficacy (secondary), and biomarker correlations (exploratory). 31 patients with resistant or refractory, advanced NHL have been enrolled.

[2] = test system: Waldenstrom's macroglobulinemia (WM); test: WM patient case on Compound 1 with intra-patient dose escalation: IgM, m-protein, response; assay type: in vivo, human
Experimental: The patient remained asymptomatic for over 4 years with a slow increase in m-protein and IgM during that time. By mid-2017 they started to experience increased fatigue. […] There was no evidence of CXCR4 genomic alteration. […] Several options were discussed including clinical trials and standard of care Bruton's tyrosine kinase inhibitor (BTKi) therapy.
Baseline testing in December 2018 included a bone marrow biopsy showing 5-10% involvement by WM, m-protein of 1.66 g/dL, IgM 2,801 mg/dL, and a computed tomography scan without pathological lymphadenopathy or hepatosplenomegaly. Quantitative immunoglobulins and serum protein electrophoresis were obtained each cycle to determine response to treatment (FIG. 1).
The patient initiated treatment at the first dose level, 50 mg. […] Using a standard 3+3 design the subsequent dose level, 100 mg po BID, was cleared per protocol. Considering evidence of response without noted toxicity, the patient was a candidate to escalate to 100 mg po BID starting with cycle 7 day 1 in April 2019. […] They reported a significant improvement in their quality of life with resolution of fatigue and returned to a rigorous daily exercise program that they had been unable to perform for the last 2 years due to WM-related symptoms. […]

[3] = Oral pharmacokinetics of Compound 1 in humans (FIG. 7); assay type: in vivo, human
From the text: In summary, the oral pharmacokinetics of Compound 1 are desirable.

[4] = Phase I dose escalation trial of Compound 1 in NHL (NCT03328078): safety and tolerance; assay type: in vivo, human
Experimental: as §5

[5] = test system: NF-κB p-p50; test: Immunohistochemistry of NF-κB p-p50 in tumor biopsies of NHL patients treated with Compound 1; assay type: in vivo, human; conditions: paired biopsies before and after/during treatment with Compound 1 (3 cases)
Experimental: Formalin-fixed, paraffin-embedded sections of human tonsil and lymphoma were used. Tissue sections (5 μm) were deparaffinized, and antigen retrieval was carried out at 90-100° C. in citrate buffer for 10-40 min. The sections were incubated in 1% […] for 10 minutes to quench endogenous tissue peroxidase. Tissue sections were then incubated with primary NF-κB p-p50-specific antibody for 1 hour at room temperature. The primary NF-κB p-p50-specific antibody used NF-κB p-p50 (S337), sc-271908 from Santa Cruz Biotechnology. The slides were stained using a standard EnVision+System-HRP kit (DAKO, Carpinteria, CA) according to the manufacture's protocol. Immunohistochemical reactions were developed with diaminobenzidine as the chromogenic peroxidase substrate, and slides were counterstained with hematoxylin. Negative control samples included replacement of the primary antibody with nonimmune IgG1 (Dako).
Specifically, nuclear and/or cytoplasmic expression of NF-kappaB p-p50 was found in all 6 SD cases treated with 50 mg QD (2 cases, tumor regression), 50 mg BID (1 case), 200 BID (1 case, tumor regression) and 400 BID (2 cases). Expression of NF-kappaB p-p50 was not detected in 7 of 8 cases with PD including patients treated with 50 mg QD (1 case), 100 mg QD (1 case), 100 mg BID (3 cases), 200 mg BID (1 case) and 400 BID (1 case). […]

[6] = test system: NF-kB p-p50 S337 in OCL-LY10 cells; test: Western blot of NF-kB p-p50 S337 in OCL-LY10 cells; assay type: cell-based; conditions: 3 μM and 10 μM, 48 h, vs DMSO
Experimental: (§1) At 48 h post-treatment, cell lysates were obtained. Protein sample concentration was quantified and equal amount 20 μg of whole protein extract was loaded in each well of SDS-polyacrylamide gel. Cell extracts were separated by 10% SDS-PAGE, transferred to nitrocellulose membrane, and probed as indicated. The following antibodies were used for immunoblot analysis: NF-kB p-p50 S337 (Santa Cruz Biotechnology) and b-actin (Cell Signaling Technology).

[7] = test system: NF-kB p-p50 S337 in TF-1 cells; test: Western blot of NF-kB p-p50 S337 in TF-1 (AML) cells; assay type: cell-based; conditions: TF-1 cells (AML cells, FIG. 13B), 3 μM and 10 μM, 48 h, vs DMSO
Experimental: as §1

[8] = test system: AML or high risk MDS; test: Phase 1 study of Compound 1 in AML or high risk MDS (NCT04278768): marrow response; assay type: in vivo, human; conditions: initial patients, 200 or 300 mg BID
Experimental: (§2) This study will be conducted in 2 parts: an initial dose escalation and dose expansion phase. […] Three patients with AML or MDS will be enrolled at the designated dose. If none of the first 3 patients experience a DLT during the first cycle, patients may be enrolled into the next higher dose level of 300 mg bid until a safe and effective RP2D is established.
(§3) This study is expected to enroll approximately 18 patients to establish the initial RP2D.
(§4) The major study inclusion and exclusion criteria are as follows: Relapsed or refractory AML (primary or secondary, including treatment-related) after at least one standard treatment (including chemotherapy, re-induction therapy or stem cell transplantation) based on the assessment of the investigator or high/very high risk relapsed/refractory MDS (IPSS-R criteria), following at least 6 cycles of hypomethylating agents [HMA] or evidence of early progression.

[9] = Phase 1 study of Compound 1 in AML or high risk MDS (NCT04278768): safety; assay type: in vivo; conditions: Cohort 1, 200 mg BID
Experimental: as §2, §3, §4

[10] = test system: Waldenstrom's macroglobulinemia (WM); test: Prior therapies of the WM patient (case history); assay type: in vivo, human

## Cc1cc(-c2nc(C(=O)Nc3cc4oc(N5CCOCC5)nc4nc3N3CC[C@@H](O)C3)co2)ccn1 [Compound 1]
[1]
  Tumor Reduction: 35%
[2]; 200 mg po BID, by the summer of 2019
  fatigue: completely resolved
[2]; cycles 7 and 8, 100 mg po BID
  response: stable disease
[3]; human, plasma, oral administration
  half-life: ~6 h
[3]; multiple daily twice dose administration
  accumulation at steady state: Moderate accumulation
[3]; oral administration
  time of maximum plasma concentrations post dose: 0.5 to 8 h
[4]; 200 mg BID, N = 5
  Anemia, All Grades, [E]: [1]
  Neutropenia, All Grades, [E]: [3]
  Neutropenia, Grade 3 or Higher, [E]: [2]
[4]; 300 mg BID, N = 6
  Anemia, All Grades, [E]: [3]
  Neutropenia, All Grades, [E]: [5]
  Neutropenia, Grade 3 or Higher, [E]: [1]
[4]; 400 mg BID, N = 8
  Anemia, All Grades, [E]: [1]
  Anemia, Grade 3 or Higher, [E]: [1]
  Neutropenia, All Grades, [E]: [3]
  Thrombocytopenia, All Grades, [E]: [2]
  Thrombocytopenia, Grade 3 or Higher, [E]: [2]
[4]; 31 NHL patients, 50 mg QD to 400 mg BID
  tolerability overall: well tolerated; also recorded: good safety and tolerance
[4]; WM patient, 200 mg po BID, asymptomatic, resolved with exercise moderation
  creatine phosphokinase (CPK/CK) elevation: grade 2
[4]; WM patient, first dose level, 50 mg
  tolerability: tolerated therapy well without adverse events
[5]
  NF-κB phospho-p50 expression in tumor biopsies: significant downregulation; also recorded: inhibited
[6]
  expression of NF-kB p-p50 S337 (Western blot): downregulated
[7]
  expression of NF-kB p-p50 S337 (Western blot): downregulated
[8]
  marrow response: several marrow complete responses
[9]; 3 patients with hr-MDS
  DLT 1st cycle: No DLT
[9]; C2
  dose reductions for Gr. 3 dizziness: 1

## rituximab
[10]; induction 375 mg/m^2 IV weekly for 8 weeks then maintenance, 2005-2007
  response: very good partial remission
[10]; retreatment 2011, numeric increase from 1476
  IgM: 2042 mg/dL
[10]; retreatment June-September 2011
  response: stable disease
